Each molecule was assayed on phospho-GSK-3β (assay: GSK 3b assay: Zn ionophore-enhanced phosphorylation of GSK-3β (AlphaScreen SureFire Phospho-GSK 3β (Ser9) kit) in SH-SY5Y cells). Details: test compound 2 μM + ZnCl2 5 μM, 2 h at 37° C.
Assay type: cell-based, human
Method: The phosphorylation of GSK-3β is enhanced when Zn is imported into a cell by a Zn ionophore. This property was measured for the compounds of the current invention and the data presented relative to the know Zn ionophore PBT2 using the following protocol.
The human neuroblastoma SH-SY5Y cells were obtained from Cell bank Australia (Catalogue number: 94030304). SH-SY5Y cell culture was maintained in DMEM/F12+15% FBS inside an incubator at 37° C. in the presence of 5% CO2. The cells were sub-cultured once a week and the media exchanged once during the week. Cells for the assay were plated at a density of 60,000 cells/well.
Stock solutions of the samples were prepared as a 5 mM stock in DMSO and a stock solution of 1 mM ZnCl2/3 mM Glutamic acid was prepared in water. Immediately before use the compounds were diluted 1:10 with water before being added to Locke's buffer in a treatment tube. Samples were subsequently treated with either distilled water or the ZnCl2/Glutamic acid solution to yield a treatment solution which has a final concentration of the test compound at 2 μM+/−ZnCl2 at 5 μM.
The culture media was aspirated from the wells and the media replaced with the treatment solution prepared above. In addition to the relative standard (PBT2+/−ZnCl2), control wells were also included consisting of +/−ZnCl2 at 5 μM with all treatments done in triplicate. The plate was incubated at 37° C. with the treatment solution for 2 h after which time the wells were aspirated and washed with sterile PBS.
Measurement of the change of phospho-GSK-3β was determined using an AlphaScreen® SureFire® Phospho-GSK […] (Ser9) Kit with the cells being processed as per the manufacturer's instructions using an initial incubation of 2 h/24° C. and a final incubation of 16 h/24° C.
The fluorescence was measured on an Enspire plate reader. […] Representative data is presented in Table 12 using the following ranges: A<50%, B 50-<100%, C 100-<150%, D>150%.
O=C(N/N=C/c1nc2ccccc2s1)c1cc(Cl)ccc1O [Compound 115] was tested, and the “GSK-Zn (signal as % of the positive standard PBT2+ZnCl2)” value was “A (A<50%)”.
With C/C(=N\NC(=O)c1cc(Cl)ccc1O)c1ccc2ccccc2n1 [Compound 92] the “GSK-Zn (signal as % of the positive standard PBT2+ZnCl2)” value was “C (C 100-<150%)”.
For CC/C(=N\NC(=O)c1cccc(C)c1)c1ncccn1 [Compound 44], the “GSK-Zn (signal as % of the positive standard PBT2+ZnCl2)” value was “B (B 50-<100%)”.
In the case of Cc1cccc(C(=O)NN=C(c2cccc(C)n2)c2cccc(C)n2)c1 [Compound 133], the “GSK-Zn (signal as % of the positive standard PBT2+ZnCl2)” value is reported as “C (C 100-<150%)”.
In the case of CC/C(=N\NC(=O)c1snnc1C)c1ncccn1 [Compound 43, (E)-4-Methyl-N′-(1-(pyrimidin-2-yl)propylidene)-1,2,3-thiadiazole-5-carbohydrazide], the “GSK-Zn (signal as % of the positive standard PBT2+ZnCl2)” value is reported as “C (C 100-<150%)”.
With C/C(=N\NC(=O)c1ccccc1O)c1ccc2ccccc2n1 [Compound 76] the “GSK-Zn (signal as % of the positive standard PBT2+ZnCl2)” value was “C (C 100-<150%)”.
In the case of COc1ccc(C(=O)N/N=C(\C)c2ccc3ccccc3n2)cc1OC [Compound 77], the “GSK-Zn (signal as % of the positive standard PBT2+ZnCl2)” value is reported as “C (C 100-<150%)”.
COc1cccc(C(=O)N/N=C(\C)c2cccc(C)n2)c1 [Compound 64] was tested, and the “GSK-Zn (signal as % of the positive standard PBT2+ZnCl2)” value was “B (B 50-<100%)”.
In the case of C/C(=N\NC(=O)c1cccc(C)c1)c1ccc2ccccc2n1 [Compound 81], the “GSK-Zn (signal as % of the positive standard PBT2+ZnCl2)” value is reported as “C (C 100-<150%)”.
In the case of C/C(=N\NC(=O)c1cccc(C)c1O)c1ccc2ccccc2n1 [Compound 82], the “GSK-Zn (signal as % of the positive standard PBT2+ZnCl2)” value is reported as “C (C 100-<150%)”.
O=C(N/N=C1\CCCc2cccnc21)c1ccccc1O [Compound 12, (E)-N′-(6,7-dihydroquinolin-8(5H)-ylidene)-2-hydroxybenzohydrazide] was tested, and the “GSK-Zn (signal as % of the positive standard PBT2+ZnCl2)” value was “B (B 50-<100%)”.
Cc1cccc(C(=NNC(=O)c2cccc(C)c2O)c2cccc(C)n2)n1 [Compound 129] was tested, and the “GSK-Zn (signal as % of the positive standard PBT2+ZnCl2)” value was “C (C 100-<150%)”.
Cc1cccc(C(=NNC(=O)c2ccc(N(C)C)cc2)c2cccc(C)n2)n1 [Compound 123] was tested, and the “GSK-Zn (signal as % of the positive standard PBT2+ZnCl2)” value was “C (C 100-<150%)”.
C/C(=N\NC(=O)c1ccccc1O)c1nc(C)cs1 [Compound 94] was tested, and the “GSK-Zn (signal as % of the positive standard PBT2+ZnCl2)” value was “C (C 100-<150%)”.
COc1ccc(C(=O)N/N=C2\CCc3cccnc32)cc1OC [Compound 38, (E)-N′-(5H-Cyclopenta[b]pyridin-7(6H)-ylidene)-3,4-dimethoxybenzohydrazide] was tested, and the “GSK-Zn (signal as % of the positive standard PBT2+ZnCl2)” value was “A (A<50%)”.
With C/C(=N\NC(=O)c1snnc1C)c1nc(C)cs1 [Compound 100, (E)-4-Methyl-N′-(1-(4-methylthiazol-2-yl)ethylidene)-1,2,3-thiadiazole-5-carbohydrazide] the “GSK-Zn (signal as % of the positive standard PBT2+ZnCl2)” value was “C (C 100-<150%)”.
In the case of COc1cc(C(=O)NN=C(c2cccc(C)n2)c2cccc(C)n2)ccc1O [Compound 130, N′-(bis(6-Methylpyridin-2-yl)methylene)-4-hydroxy-3-methoxybenzohydrazide], the “GSK-Zn (signal as % of the positive standard PBT2+ZnCl2)” value is reported as “A (A<50%)”.
Cc1cccc(C(=NNC(=O)c2ccccc2F)c2cccc(C)n2)n1 [Compound 134] was tested, and the “GSK-Zn (signal as % of the positive standard PBT2+ZnCl2)” value was “B (B 50-<100%)”.
For COc1ccc(C(=O)NN=C(c2cccc(C)n2)c2cccc(C)n2)cc1OC [Compound 126], the “GSK-Zn (signal as % of the positive standard PBT2+ZnCl2)” value was “C (C 100-<150%)”.
Cc1cccc(C(=O)N/N=C\c2cn3ccccc3n2)c1 [Compound 121] was tested, and the “GSK-Zn (signal as % of the positive standard PBT2+ZnCl2)” value was “A (A<50%)”.
For C/C(=N\NC(=O)c1cc(Cl)ccc1O)c1nc(C)cs1 [Compound 95], the “GSK-Zn (signal as % of the positive standard PBT2+ZnCl2)” value was “C (C 100-<150%)”.
In the case of COc1cc(C(=O)N/N=C(\C)c2ccc3ccccc3n2)ccc1O [Compound 87], the “GSK-Zn (signal as % of the positive standard PBT2+ZnCl2)” value is reported as “C (C 100-<150%)”.
Cc1cccc(C(=O)N/N=C/c2nccs2)c1O [Compound 119] was tested, and the “GSK-Zn (signal as % of the positive standard PBT2+ZnCl2)” value was “A (A<50%)”.
Cc1cccc(C(=O)N/N=C(/c2ncccn2)C(C)C)c1 [Compound 51] was tested, and the “GSK-Zn (signal as % of the positive standard PBT2+ZnCl2)” value was “B (B 50-<100%)”.
In the case of C/C(=N\NC(=O)c1cccc(C)c1O)c1nc2ccccc2s1 [Compound 105], the “GSK-Zn (signal as % of the positive standard PBT2+ZnCl2)” value is reported as “B (B 50-<100%)”.
In the case of COc1cc(C(=O)N/N=C2\CCCc3cccnc32)ccc1O [Compound 21], the “GSK-Zn (signal as % of the positive standard PBT2+ZnCl2)” value is reported as “A (A<50%)”.
With C/C(=N\NC(=O)c1cccc(C)c1O)c1ccc(C)s1 [Compound 103] the “GSK-Zn (signal as % of the positive standard PBT2+ZnCl2)” value was “B (B 50-<100%)”.
C/C(=N\NC(=O)c1cccc(C)c1O)c1cccc(C)n1 [Compound 65] was tested, and the “GSK-Zn (signal as % of the positive standard PBT2+ZnCl2)” value was “B (B 50-<100%)”.
Cc1cccc(C(=O)N/N=C\c2nc(C)c(C)s2)c1 [Compound 106] was tested, and the “GSK-Zn (signal as % of the positive standard PBT2+ZnCl2)” value was “A (A<50%)”.
For O=C(N/N=C1\CCCc2cccnc21)c1ccc(C(F)(F)F)cc1 [Compound 20], the “GSK-Zn (signal as % of the positive standard PBT2+ZnCl2)” value was “A (A<50%)”.
In the case of C/C(=N\NC(=O)c1cc2ccccc2s1)c1ccccn1 [Compound 146, (E)-N′-(1-(Pyridin-2-yl)ethylidene)benzo[b]thiophene-2-carbohydrazide], the “GSK-Zn (signal as % of the positive standard PBT2+ZnCl2)” value is reported as “C (C 100-<150%)”.
For COc1cccc(C(=O)NN=C(c2cccc(C)n2)c2cccc(C)n2)c1 [Compound 131], the “GSK-Zn (signal as % of the positive standard PBT2+ZnCl2)” value was “B (B 50-<100%)”.
In the case of C/C(=N\NC(=O)c1cc2ccccc2s1)c1cc(C)ccn1 [Compound 72], the “GSK-Zn (signal as % of the positive standard PBT2+ZnCl2)” value is reported as “C (C 100-<150%)”.
In the case of COc1ccc(Cl)cc1C(=O)N/N=C1\CCCc2cccnc21 [Compound 17], the “GSK-Zn (signal as % of the positive standard PBT2+ZnCl2)” value is reported as “A (A<50%)”.
In the case of Cl.O=C(N/N=C1\CCCc2cccnc21)c1ccccc1OCCN1CCCC1 [Compound 41, (E)-N′-(6,7-Dihydroquinolin-8(5H)-ylidene)-2-(2-(pyrrolidin-1-yl)ethoxy)benzohydrazide hydrochloride], the “GSK-Zn (signal as % of the positive standard PBT2+ZnCl2)” value is reported as “A (A<50%)”.
In the case of C/C(=N\NC(=O)c1ccccc1C)c1cc(C)ccn1 [Compound 74], the “GSK-Zn (signal as % of the positive standard PBT2+ZnCl2)” value is reported as “B (B 50-<100%)”.
For C/C(=N\NC(=O)c1ccccc1O)c1nc2ccccc2s1 [Compound 104], the “GSK-Zn (signal as % of the positive standard PBT2+ZnCl2)” value was “D (D>150%)”.
With Cc1cccc(C(=NNC(=O)c2cc(Cl)ccc2O)c2cccc(C)n2)n1 [Compound 128] the “GSK-Zn (signal as % of the positive standard PBT2+ZnCl2)” value was “D (D>150%)”.
In the case of C/C(=N\NC(=O)c1ccccc1Cl)c1cccc(C)n1 [Compound 67], the “GSK-Zn (signal as % of the positive standard PBT2+ZnCl2)” value is reported as “C (C 100-<150%)”.
With O=C(N/N=C1\CCCc2cccnc21)c1cc2c(s1)-c1ccccc1OC2 [Compound 25] the “GSK-Zn (signal as % of the positive standard PBT2+ZnCl2)” value was “B (B 50-<100%)”.
In the case of C/C(=N\NC(=O)c1cc2ccccc2s1)c1cccc(C)n1 [Compound 75], the “GSK-Zn (signal as % of the positive standard PBT2+ZnCl2)” value is reported as “C (C 100-<150%)”.
With CCOc1cccc(C(=O)NN=C(c2cccc(C)n2)c2cccc(C)n2)c1 [Compound 132] the “GSK-Zn (signal as % of the positive standard PBT2+ZnCl2)” value was “C (C 100-<150%)”.
With O=C(N/N=C1\CCCc2cccnc21)c1cc2ccccc2s1 [Compound 24] the “GSK-Zn (signal as % of the positive standard PBT2+ZnCl2)” value was “A (A<50%)”.
With COc1cccc(C(=O)N/N=C(\C)c2ccc3ccccc3n2)c1 [Compound 78] the “GSK-Zn (signal as % of the positive standard PBT2+ZnCl2)” value was “C (C 100-<150%)”.
In the case of O=C(N/N=C1\CCCc2cccnc21)c1cccc(Cl)c1 [Compound 16], the “GSK-Zn (signal as % of the positive standard PBT2+ZnCl2)” value is reported as “A (A<50%)”.
For O=C(N/N=C1\CCCc2cccnc21)c1cc(Cl)ccc1O [Compound 11], the “GSK-Zn (signal as % of the positive standard PBT2+ZnCl2)” value was “C (C 100-<150%)”.
In the case of O=C(N/N=C/c1nccs1)c1cc(Cl)ccc1O [Compound 109], the “GSK-Zn (signal as % of the positive standard PBT2+ZnCl2)” value is reported as “B (B 50-<100%)”.
For Cc1ccccc1C(=O)N/N=C1\CCCc2cccnc21 [Compound 18], the “GSK-Zn (signal as % of the positive standard PBT2+ZnCl2)” value was “B (B 50-<100%)”.
CC/C(=N\NC(=O)c1cccc(C)c1O)c1ncccn1 [Compound 46] was tested, and the “GSK-Zn (signal as % of the positive standard PBT2+ZnCl2)” value was “C (C 100-<150%)”.
In the case of Cc1cccc(C(=NNC(=O)c2ccccn2)c2cccc(C)n2)n1 [Compound 135], the “GSK-Zn (signal as % of the positive standard PBT2+ZnCl2)” value is reported as “B (B 50-<100%)”.
With CC/C(=N\NC(=O)c1cccc(OC)c1)c1ncccn1 [Compound 45] the “GSK-Zn (signal as % of the positive standard PBT2+ZnCl2)” value was “C (C 100-<150%)”.
In the case of C/C(=N\NC(=O)c1snnc1C)c1cc(C)ccn1 [Compound 73], the “GSK-Zn (signal as % of the positive standard PBT2+ZnCl2)” value is reported as “C (C 100-<150%)”.
With COc1ccc(C(=O)N/N=C2/c3ncccc3CCC2(C)C)cc1OC [Compound 26] the “GSK-Zn (signal as % of the positive standard PBT2+ZnCl2)” value was “A (A<50%)”.

Source: US11603364B2, “Acyl hydrazone derivative compounds for treating disease” (Alterity Therapeutics Limited, priority 2020, dated 2023)
